# Measurements published in patent publication US12459922B2 (Gilead Sciences, Inc., priority 2022, dated 2025).
# System: endogenous cellular STAT1 (phosphorylated at Tyr701) in NCI-H1373 cells
# Assay: Phospho-STAT1 (Tyr701) LANCE Ultra TR-FRET Detection Assay
# Format: cell-based
# Conditions: 48 hours, phospho-STAT1 (Tyr701) induction, read-out: NH1373 pSTAT1 EC50
row,EC50 [nM],SMILES
1,4.35,Cc1cnc(-c2cc3ccn(C[C@@H]4CCC[C@H](Nc5cn[nH]c(=O)c5C(F)(F)F)C4)c(=O)c3cc2F)nc1 [Example 240]
2,9.44,Cc1cnc(-c2cc3ccn(C[C@@H]4CCC[C@H](Nc5cn[nH]c(=O)c5C(F)(F)F)C4)c(=O)c3cc2F)nc1 [Example 242]

# Same assay, conditions: Homo sapiens, NCI-H1373, 48 h, phospho-STAT1 (Tyr701) induction, read-out: NH1373 pSTAT1 EC50
row,SMILES,EC50 [nM]
1,"Nc1nc(-c2cc3ccn(C[C@@H]4CCC[C@H](Nc5cn[nH]c(=O)c5C(F)(F)F)C4)c(=O)c3cc2F)ncc1C(F)F [Example 231, 6-(4-amino-5-(difluoromethyl)pyrimidin-2-yl)-7-fluoro-2-(((1R,3S)-3-((6-oxo-5-(trifluoromethyl)-1,6-dihydropyridazin-4-yl)amino)cyclohexyl)methyl)isoquinolin-1(2H)-one]",5.92
2,Nc1nc(-c2cc3ncn(C[C@@H]4CCC[C@H](Nc5cn[nH]c(=O)c5C(F)(F)F)C4)c(=O)c3cc2F)ncc1C(F)F [Example 236],32.2
3,O=c1[nH]ncc(N[C@H]2CCC[C@@H](Cn3ccc4cc(-c5ncc(C6CC6)cn5)c(F)cc4c3=O)C2)c1C(F)(F)F [Example 241],6.38
4,"O=c1[nH]ncc(N[C@H]2CCC[C@@H](Cn3cnc4cc(-c5ncc(C(F)F)cn5)c(F)cc4c3=O)C2)c1C(F)(F)F [Example 244, 7-(5-(difluoromethyl)pyrimidin-2-yl)-6-fluoro-3-(((1R,3S)-3-((6-oxo-5-(trifluoromethyl)-1,6-dihydropyridazin-4-yl)amino)cyclohexyl)methyl)quinazolin-4(3H)-one]",5.19
5,"O=c1[nH]ncc(N[C@H]2CCC[C@@H](Cn3cnc4cc(-c5ncc(Cl)cn5)c(F)cc4c3=O)C2)c1C(F)(F)F [Example 247, 7-(5-chloropyrimidin-2-yl)-6-fluoro-3-(((1R,3S)-3-((6-oxo-5-(trifluoromethyl)-1,6-dihydropyridazin-4-yl)amino)cyclohexyl)methyl)quinazolin-4(3H)-one]",8.8
6,"Nc1nc(-c2cc3ccn(C[C@@H]4CCC[C@H](Nc5cn[nH]c(=O)c5C(F)(F)F)C4)c(=O)c3cc2F)cnc1C(F)(F)F [Example 249, 6-(6-amino-5-(trifluoromethyl)pyrazin-2-yl)-7-fluoro-2-(((1R,3S)-3-((6-oxo-5-(trifluoromethyl)-1,6-dihydropyridazin-4-yl)amino)cyclohexyl)methyl)isoquinolin-1(2H)-one]",32.4
7,"Nc1nc(-c2cc3ccn(C[C@@H]4CCC[C@H](Nc5cn[nH]c(=O)c5C(F)(F)F)C4)c(=O)c3cc2F)ncc1Cl [Example 250, 6-(4-amino-5-chloropyrimidin-2-yl)-7-fluoro-2-(((1R,3S)-3-((6-oxo-5-(trifluoromethyl)-1,6-dihydropyridazin-4-yl)amino)cyclohexyl)methyl)isoquinolin-1(2H)-one]",4.71
8,"Nc1nc(-c2cc3ccn(C[C@@H]4CCC[C@H](Nc5cn[nH]c(=O)c5C(F)(F)F)C4)c(=O)c3cc2F)ccc1C(F)(F)F [Example 251, 6-(6-amino-5-(trifluoromethyl)pyridin-2-yl)-7-fluoro-2-(((1R,3S)-3-((6-oxo-5-(trifluoromethyl)-1,6-dihydropyridazin-4-yl)amino)cyclohexyl)methyl)isoquinolin-1(2H)-one]",47.3
9,"Nc1nc(-c2cc3ncn(C[C@@H]4CCC[C@H](Nc5cn[nH]c(=O)c5C(F)(F)F)C4)c(=O)c3cc2F)cnc1C(F)(F)F [Example 254, 7-(6-amino-5-(trifluoromethyl)pyrazin-2-yl)-6-fluoro-3-(((1R,3S)-3-((6-oxo-5-(trifluoromethyl)-1,6-dihydropyridazin-4-yl)amino)cyclohexyl)methyl)quinazolin-4(3H)-one]",31.9
10,"COc1cnc(-c2cc3ccn(C[C@@H]4CCC[C@H](Nc5cn[nH]c(=O)c5C(F)(F)F)C4)c(=O)c3cc2F)nc1N [Example 255, 6-(4-amino-5-methoxypyrimidin-2-yl)-7-fluoro-2-(((1R,3S)-3-((6-oxo-5-(trifluoromethyl)-1,6-dihydropyridazin-4-yl)amino)cyclohexyl)methyl)isoquinolin-1(2H)-one]",9.1
11,"O=c1[nH]ncc(N[C@H]2CCC[C@@H](Cn3ccc4cc(-c5cnc(C(F)F)cn5)c(F)cc4c3=O)C2)c1C(F)(F)F [Example 258, 6-(5-(difluoromethyl)pyrazin-2-yl)-7-fluoro-2-(((1R,3S)-3-((6-oxo-5-(trifluoromethyl)-1,6-dihydropyridazin-4-yl)amino)cyclohexyl)methyl)isoquinolin-1(2H)-one]",31.7
12,"O=c1[nH]ncc(N[C@H]2CCC[C@@H](Cn3ccc4cc(-c5cnc(OC(F)F)cn5)c(F)cc4c3=O)C2)c1C(F)(F)F [Example 259, 6-(5-(difluoromethoxy)pyrazin-2-yl)-7-fluoro-2-(((1R,3S)-3-((6-oxo-5-(trifluoromethyl)-1,6-dihydropyridazin-4-yl)amino)cyclohexyl)methyl)isoquinolin-1(2H)-one]",183
13,"Nc1nc(-c2cc3ccn(C[C@@H]4CCC[C@H](Nc5cn[nH]c(=O)c5C(F)(F)F)C4)c(=O)c3cc2F)ncc1OC(F)F [Example 260, 6-(4-amino-5-(difluoromethoxy)pyrimidin-2-yl)-7-fluoro-2-(((1R,3S)-3-((6-oxo-5-(trifluoromethyl)-1,6-dihydropyridazin-4-yl)amino)cyclohexyl)methyl)isoquinolin-1(2H)-one]",12.7
14,"Nc1nc(-c2cc3ncn(C[C@@H]4CCC[C@H](Nc5cn[nH]c(=O)c5C(F)(F)F)C4)c(=O)c3cc2F)ncc1Cl [Example 261, 7-(4-amino-5-chloropyrimidin-2-yl)-6-fluoro-3-(((1R,3S)-3-((6-oxo-5-(trifluoromethyl)-1,6-dihydropyridazin-4-yl)amino)cyclohexyl)methyl)quinazolin-4(3H)-one]",6.1

# Second part, the molecule after the results:
row,EC50 [nM],SMILES
1,1.67,"O=c1[nH]ncc(N[C@H]2CCC[C@@H](Cn3ccc4cc(-c5ncc(C(F)(F)F)cn5)c(F)c(F)c4c3=O)C2)c1C(F)(F)F [Example 232, 7,8-difluoro-2-(((1R,3S)-3-((6-oxo-5-(trifluoromethyl)-1,6-dihydropyridazin-4-yl)amino)cyclohexyl)methyl)-6-(5-(trifluoromethyl)pyrimidin-2-yl)isoquinolin-1(2H)-one]"
2,1.95,O=c1[nH]ncc(N[C@H]2CCC[C@@H](Cn3ccc4cc(-c5ncc(C(F)F)cn5)c(F)c(F)c4c3=O)C2)c1C(F)(F)F [Example 233]
3,1.55,Nc1nc(-c2cc3ccn(C[C@@H]4CCC[C@H](Nc5cn[nH]c(=O)c5C(F)(F)F)C4)c(=O)c3c(F)c2F)ncc1C(F)(F)F [Example 234]
4,4.38,O=c1[nH]ncc(N[C@H]2CCC[C@@H](Cn3cnc4cc(-c5ncc(C(F)(F)F)cn5)c(F)cc4c3=O)C2)c1C(F)(F)F [Example 235]
5,5.37,Nc1nc(-c2cc3ccn(C[C@@H]4CCC[C@H](Nc5cn[nH]c(=O)c5C(F)(F)F)C4)c(=O)c3c(F)c2F)ncc1C(F)F [Example 239]
6,2.98,"Nc1nc(-c2cc3ccn(C[C@@H]4CCC[C@H](Nc5cn[nH]c(=O)c5C(F)(F)F)C4)c(=O)c3c(F)c2F)ncc1Cl [Example 243, 6-(4-amino-5-chloropyrimidin-2-yl)-7,8-difluoro-2-(((1R,3S)-3-((6-oxo-5-(trifluoromethyl)-1,6-dihydropyridazin-4-yl)amino)cyclohexyl)methyl)isoquinolin-1(2H)-one]"
7,8.13,"Nc1nc(-c2cc3ccn(C[C@@H]4CCC[C@H](Nc5cn[nH]c(=O)c5C(F)(F)F)C4)c(=O)c3c(F)c2F)ncc1OC(F)F [Example 245, 6-(4-amino-5-(difluoromethoxy)pyrimidin-2-yl)-7,8-difluoro-2-(((1R,3S)-3-((6-oxo-5-(trifluoromethyl)-1,6-dihydropyridazin-4-yl)amino)cyclohexyl)methyl)isoquinolin-1(2H)-one]"
8,3.78,"O=c1[nH]ncc(N[C@H]2CCC[C@@H](Cn3ccc4cc(-c5ncc(Cl)cn5)c(F)c(F)c4c3=O)C2)c1C(F)(F)F [Example 246, 6-(5-chloropyrimidin-2-yl)-7,8-difluoro-2-(((1R,3S)-3-((6-oxo-5-(trifluoromethyl)-1,6-dihydropyridazin-4-yl)amino)cyclohexyl)methyl)isoquinolin-1(2H)-one]"
9,3.44,"O=c1[nH]ncc(N[C@H]2CCC[C@@H](Cn3ccc4cc(-c5ncc(Cl)cn5)c(F)cc4c3=O)C2)c1C(F)(F)F [Example 248, 6-(5-chloropyrimidin-2-yl)-7-fluoro-2-(((1R,3S)-3-((6-oxo-5-(trifluoromethyl)-1,6-dihydropyridazin-4-yl)amino)cyclohexyl)methyl)isoquinolin-1(2H)-one]"
10,16.2,"Nc1nc(-c2cc3ccn(C[C@@H]4CCC[C@H](Nc5cn[nH]c(=O)c5C(F)(F)F)C4)c(=O)c3c(F)c2F)ccc1C(F)(F)F [Example 252, 6-(6-amino-5-(trifluoromethyl)pyridin-2-yl)-7,8-difluoro-2-(((1R,3S)-3-((6-oxo-5-(trifluoromethyl)-1,6-dihydropyridazin-4-yl)amino)cyclohexyl)methyl)isoquinolin-1(2H)-one]"
11,9.41,"O=c1[nH]ncc(N[C@H]2CCC[C@@H](Cn3ccc4cc(-c5cnc(C(F)F)cn5)c(F)c(F)c4c3=O)C2)c1C(F)(F)F [Example 253, 6-(5-(difluoromethyl)pyrazin-2-yl)-7,8-difluoro-2-(((1R,3S)-3-((6-oxo-5-(trifluoromethyl)-1,6-dihydropyridazin-4-yl)amino)cyclohexyl)methyl)isoquinolin-1(2H)-one]"
12,30.2,"O=c1[nH]ncc(N[C@H]2CCC[C@@H](Cn3ccc4cc(-c5cnc(C(F)(F)F)cn5)c(F)cc4c3=O)C2)c1C(F)(F)F [Example 256, 7-fluoro-2-(((1R,3S)-3-((6-oxo-5-(trifluoromethyl)-1,6-dihydropyridazin-4-yl)amino)cyclohexyl)methyl)-6-(5-(trifluoromethyl)pyrazin-2-yl)isoquinolin-1(2H)-one]"
13,25.1,"Nc1nc(-c2cc3ccn(C[C@@H]4CCC[C@H](Nc5cn[nH]c(=O)c5C(F)(F)F)C4)c(=O)c3c(F)c2F)cnc1C(F)(F)F [Example 257, 6-(6-amino-5-(trifluoromethyl)pyrazin-2-yl)-7,8-difluoro-2-(((1R,3S)-3-((6-oxo-5-(trifluoromethyl)-1,6-dihydropyridazin-4-yl)amino)cyclohexyl)methyl)isoquinolin-1(2H)-one]"
